In ChEMBL document CHEMBL4706519, “Evaluation of N-phenyl-2-aminothiazoles for treatment of multi-drug resistant and intracellular Staphylococcus aureus infections” (Eur J Med Chem, 2020):
Values after ≈ are worked out from the molar mass of the structure shown.

Tests used:
[1] = test system: Staphylococcus epidermidis; test: Antibacterial activity against methicillin-resistant Staphylococcus epidermidis NRS101 assessed as inhibition of bacterial growth measured after 18 to 20 hrs by CLSI protocol based broth microdilution method; assay type: functional; settings: time 18-20 hrs
[2] = test system: Streptococcus pneumoniae; test: Antibacterial activity against methicillin-resistant Streptococcus pneumoniae ATCC 700677 assessed as inhibition of bacterial growth measured after 18 to 20 hrs by CLSI protocol based broth microdilution method; assay type: functional; settings: time 18-20 hrs
[3] = test system: Staphylococcus aureus; test: Ratio of MBC to MIC against methicillin-sensitive Staphylococcus aureus ATCC 6538 assessed as inhibition of bacterial growth measured after 18 to 20 hrs by CLSI broth microdilution method; assay type: functional; settings: time 18-20 hrs
[4] = test system: Escherichia coli; test: Antibacterial activity against Escherichia coli JW55031 harboring toIC efflux mutant assessed as inhibition of bacterial growth measured after 18 to 20 hrs by broth microdilution method; assay type: functional; settings: time 18-20 hrs
[5] = test system: Staphylococcus aureus; test: Antibacterial activity against vancomycin-resistant Staphylococcus aureus 12 assessed as inhibition of bacterial growth measured after 18 to 20 hrs by CLSI protocol based broth microdilution method; assay type: functional; settings: time 18-20 hrs
[6] = test system: Staphylococcus aureus; test: Bactericidal activity against methicillin-resistant Staphylococcus aureus USA400 NRS123 assessed as post-antibiotic effect at 5 times MIC incubated for 2 hrs followed by compound wash-out by viable plate count method; assay type: functional
[7] = test system: Enterococcus faecium; test: Antibacterial activity against vancomycin-resistant Enterococcus faecium ATCC 700221 assessed as inhibition of bacterial growth measured after 18 to 20 hrs by CLSI protocol based broth microdilution method; assay type: functional; settings: time 18-20 hrs
[8] = test system: Staphylococcus aureus; test: microbe, parasite or virus in culture; settings: USA500 NRS385
[9] = test system: Listeria monocytogenes; test: Antibacterial activity against Listeria monocytogenes ATCC 19111 assessed as inhibition of bacterial growth measured after 18 to 20 hrs by CLSI protocol based broth microdilution method; assay type: functional; settings: time 18-20 hrs

## C/C(=N\NC(=N)N)c1ccc(Nc2nc(-c3ccc(C)cc3)cs2)cc1
[1]
  MBC: 1 µg/mL (≈ 2.74 µM)
  MIC: 1 µg/mL (≈ 2.74 µM)
[2]
  MBC: 8 µg/mL (≈ 21.9 µM)
  MIC: 2 µg/mL (≈ 5.49 µM)
[3]
  Ratio: 1
[4]
  MIC: 4 µg/mL (≈ 11 µM)
[5]
  MBC: 2 µg/mL (≈ 5.49 µM)
  MIC: 2 µg/mL (≈ 5.49 µM)
[6]
  PAE: 6 h
[7]
  MBC: 4 µg/mL (≈ 11 µM)
  MIC: 2 µg/mL (≈ 5.49 µM)
[8]
  MBC: 2 µg/mL (≈ 5.49 µM)
  MIC: 2 µg/mL (≈ 5.49 µM)
[9]
  MBC: 2 µg/mL (≈ 5.49 µM)
  MIC: 1 µg/mL (≈ 2.74 µM)
